Values of other authors, collected in patent publication US10562887B2, “Triazolones and tetrazolones as inhibitors of ROCK” (BRISTOL-MYERS SQUIBB COMPANY, priority 2016, dated 2020).
Read-outs that look alike come from different tables or passages of the source.

Key:
neointimal formation = details: rats; cited from earlier work
[1] = system: congestive heart failure in Dahl salt-sensitive rats; details: cited from earlier work
[2] = system: spontaneously hypertensive rat, renal hypertensive rat and deoxycortisone acetate salt hypertensive rat models; details: cited from earlier work

C[C@@H](N)[C@H]1CC[C@H](C(=O)Nc2ccncc2)CC1 [Example Y-27632, Y-27632]
neointimal formation (neointimal formation): inhibited neointimal formation
ventricular hypertrophy, fibrosis and function [1]: improve
blood pressure ([2]; control rats): only a minor effect
blood pressure ([2]; three rat models of hypertension): significantly decrease blood pressure
